Publication PMC11396129, “Oxindole–benzothiazole hybrids as CDK2 inhibitors and anticancer agents: design, synthesis and biological evaluation” (BMC Chemistry, 2024)

Legend:
Format in all cases: cell-based, human
A549/ATCC = experiment: NCI 60 panel growth inhibition (SRB), non-small cell lung cancer; conditions: 10 μM
Description: (§1) Screening of cytotoxic activity against a panel of sixty human tumor cell lines The selected compounds by NCI were evaluated for their anticancer activity in a two- stage process. […] Then, the output from the single dose screen is reported as a mean graph. […] Assay protocol. […] For a typical screening experiment, cells are inoculated into 96 well microtiter plates in 100 µL at plating densities ranging from 5000 to 40,000 cells/well depending on the doubling time of individual cell lines. […] After 24 h, two plates of each cell line are fixed in situ with TCA, to represent a measurement of the cell population for each cell line at the time of drug addition (Tz). The experimental drugs are solubilized in dimethyl sulfoxide at 400-fold the desired final maximum test concentration and stored frozen prior to use. At the time of drug addition, an aliquot of frozen concentrate is thawed and diluted to twice the desired final maximum test concentration with complete medium containing 50 µg/mL gentamicin. Additional four, 10-fold or ½ log serial dilutions are made to provide a total of five drug concentrations plus control. […] For adherent cells, the assay is terminated by the addition of cold TCA. […] The supernatant is discarded, and the plates are washed five times with tap water and air dried. […] Using the seven absorbance measurements [time zero, (Tz), control growth, (C), and test growth in the presence of drug at the five concentration levels (Ti)], the percentage growth is calculated at each of the drug concentrations levels. Percentage growth inhibition is calculated as: [(Ti Tz)/(C–Tz)] x 100 for concentrations for which Ti>/=Tz and [(Ti-Tz)/Tz] x 100 for concentrations for which Ti < Tz. Three dose response parameters are calculated for each experimental agent. […] The drug concentration resulting in total growth inhibition (TGI) is calculated from Ti = Tz. […] Values are calculated for each of these three parameters if the level of activity is reached; however, if the effect is not reached or is exceeded, the value for that parameter is expressed as greater or less than the maximum or minimum concentration tested.

EKVX = experiment: as above; conditions: 10 μM
Description: as §1

HOP-62 = experiment: as above; conditions: HOP-62, 10 μM
Description: as §1

HOP-92 = experiment: as above; conditions: HOP-92, 10 μM
Description: as §1

NCI-H226 = experiment: as above; conditions: NCI-H226, 10 μM
Description: as §1

NCI-H23 = experiment: as above; conditions: NCI-H23, 10 μM
Description: as §1

NCI-H322M = experiment: as above; conditions: 10 μM
Description: as §1

NCI-H460 = experiment: as above; conditions: NCI-H460, 10 μM
Description: as §1

NCI-H522 = experiment: as above; conditions: NCI-H522, 10 μM
Description: as §1

COLO 205 = experiment: NCI 60 panel growth inhibition (SRB), colon cancer; conditions: COLO 205, 10 μM
Description: as §1

HCC-2998 = experiment: NCI 60 panel growth inhibition (SRB), colon cancer; conditions: HCC-2998, 10 μM
Description: as §1

HCT-116 = experiment: NCI 60 panel growth inhibition (SRB), colon cancer; conditions: HCT-116, 10 μM
Description: as §1

HCT-15 = experiment: NCI 60 panel growth inhibition (SRB), colon cancer; conditions: HCT-15, 10 μM
Description: as §1

KM12 = experiment: NCI 60 panel growth inhibition (SRB), colon cancer; conditions: KM12, 10 μM
Description: as §1

SW-620 = experiment: NCI 60 panel growth inhibition (SRB), colon cancer; conditions: SW-620, 10 μM
Description: as §1

LOX IMVI = experiment: NCI 60 panel growth inhibition (SRB), melanoma; conditions: 10 μM
Description: as §1

M14 = experiment: NCI 60 panel growth inhibition (SRB), melanoma; conditions: M14, 10 μM
Description: as §1

MALME-3M = experiment: NCI 60 panel growth inhibition (SRB), melanoma; conditions: 10 μM
Description: as §1

MDA-MB-435 = experiment: NCI 60 panel growth inhibition (SRB), melanoma; conditions: MDA-MB-435, 10 μM
Description: as §1

SK-MEL-28 = experiment: NCI 60 panel growth inhibition (SRB), melanoma; conditions: SK-MEL-28, 10 μM
Description: as §1

SK-MEL-5 = experiment: NCI 60 panel growth inhibition (SRB), melanoma; conditions: SK-MEL-5, 10 μM
Description: as §1

UACC-257 = experiment: NCI 60 panel growth inhibition (SRB), melanoma; conditions: UACC-257, 10 μM
Description: as §1

UACC-62 = experiment: NCI 60 panel growth inhibition (SRB), melanoma; conditions: UACC-62, 10 μM
Description: as §1

RXF 393 = experiment: NCI 60 panel growth inhibition (SRB), renal cancer; conditions: RXF 393, 10 μM
Description: as §1

TK-10 = experiment: NCI 60 panel growth inhibition (SRB), renal cancer; conditions: TK-10, 10 μM
Description: as §1

UO-31 = experiment: NCI 60 panel growth inhibition (SRB), renal cancer; conditions: UO-31, 10 μM
Description: as §1

DU-145 = experiment: NCI 60 panel growth inhibition (SRB), prostate cancer; conditions: DU-145, 10 μM
Description: as §1

PC-3 = experiment: as above; conditions: PC-3, 10 μM
Description: as §1

BT-549 = experiment: NCI 60 panel growth inhibition (SRB), breast cancer; conditions: BT-549, 10 μM
Description: as §1

HS 578T = experiment: as above; conditions: 10 μM
Description: as §1

MCF7 = experiment: as above; conditions: MCF7, 10 μM
Description: as §1

MDA-MB-231/ATCC = experiment: as above; conditions: 10 μM
Description: as §1

MDA-MB-468 = experiment: as above; conditions: MDA-MB-468, 10 μM
Description: as §1

T-47D = experiment: as above; conditions: 10 μM
Description: as §1

| SMILES | GI% (A549/ATCC) | GI% (EKVX) | GI% (HOP-62) | GI% (HOP-92) | GI% (NCI-H226) | GI% (NCI-H23) [%] | GI% (NCI-H322M) [%] | GI% (NCI-H460) | GI% (NCI-H522) | GI% (COLO 205) | GI% (HCC-2998) | GI% (HCT-116) | GI% (HCT-15) [%] | GI% (KM12) | GI% (SW-620) | GI% (LOX IMVI) | GI% (M14) | GI% (MALME-3M) [%] | GI% (MDA-MB-435) | GI% (SK-MEL-28) | also measured |
| --- | --- | --- | --- | --- | --- | --- | --- | --- | --- | --- | --- | --- | --- | --- | --- | --- | --- | --- | --- | --- | --- |
| COc1cccc(-c2nc3ccccc3s2)c1OCC(=O)NN=C1C(=O)Nc2ccccc21 [Compound 9g, 2-(2-(Benzo[d]thiazol-2-yl)-6-methoxyphenoxy)-N′-(2-oxoindolin-3-ylidene)acetohydrazide] | 16.44% | 29.56% | – (GI% < 5%) | 34.60% | 45.16% | 25.24 | 10.24 | – (GI% < 5%) | 33.32% | 25.08% | – (GI% < 5%) | 20.48% | 25.54 | 8.64% | – (GI% < 5%) | 25.54% | – (GI% < 5%) | 13.82 | 10.97% | – (GI% < 5%) | GI% (SK-MEL-5): 95.02%; GI% (UACC-257): – (GI% < 5%); GI% (UACC-62): 46.29%; GI% (RXF 393): 35.85%; GI% (TK-10): – (GI% < 5%); GI% (UO-31): 41.81%; GI% (DU-145): – (GI% < 5%); GI% (PC-3): 44.41%; GI% (BT-549): 25.83%; GI% (HS 578T): 16.30%; GI% (MCF7): 26.62%; GI% (MDA-MB-231/ATCC): 18.32%; GI% (MDA-MB-468): 50.47%; GI% (T-47D): 29.32% |
| COc1ccc(-c2nc3ccccc3s2)cc1OCC(=O)NN=C1C(=O)Nc2ccc(C)cc21 [Compound 9n, 2-(5-(Benzo[d]thiazol-2-yl)-2-methoxyphenoxy)-N′-(5-methyl-2-oxoindolin-3-ylidene)acetohydrazide] | – (GI% < 5%) | – (GI% < 5%) | – (GI% < 5%) | – (GI% < 5%) | – (GI% < 5%) | 12.32 | 10.32 | – (GI% < 5%) | – (GI% < 5%) | – (GI% < 5%) | – (GI% < 5%) | – (GI% < 5%) | 9.62 | – (GI% < 5%) | 6.33% | – (GI% < 5%) | – (GI% < 5%) | 18.46 | – (GI% < 5%) | 6.91% | GI% (SK-MEL-5): 7.31%; GI% (UACC-257): – (GI% < 5%); GI% (UACC-62): 13.88%; GI% (TK-10): – (GI% < 5%); GI% (UO-31): – (GI% < 5%); GI% (DU-145): 7.08%; GI% (PC-3): – (GI% < 5%); GI% (BT-549): – (GI% < 5%); GI% (HS 578T): 5.72%; GI% (MCF7): 25.33%; GI% (MDA-MB-231/ATCC): 12.37%; GI% (MDA-MB-468): – (GI% < 5%); GI% (T-47D): 13.50% |
| CNC(=O)c1nn(C)c2c1C(C)(C)Cc1cnc(Nc3ccc(N4CCN(C)CC4)cc3)nc1-2 [Milciclib, reference compound] | 108% | 94.3% | 109.50% | 96.20% | 87.70% | 97.60 | 84.90 | 92.50% | 129.40% | 180.1% | 89.6% | 99.8% | 96.9 | 99.4% | 88.5% | 94.70% | 87.5% | 108.70 | 78.9% | 83.80% | GI% (SK-MEL-5): 92.70%; GI% (UACC-257): 114.80%; GI% (UACC-62): 109.5%; GI% (RXF 393): 148.20%; GI% (TK-10): 112.5%; GI% (UO-31): 108.7%; GI% (DU-145): 84.50%; GI% (PC-3): 92.10%; GI% (BT-549): 94.80%; GI% (MCF7): 89.60%; GI% (MDA-MB-231/ATCC): 85.30%; GI% (MDA-MB-468): 113.40%; GI% (T-47D): 105.70% |
